{
  "source": "patent US6492427B2",
  "about": "“Methods for treating multiple sclerosis” (priority 1998, dated 2002)",
  "assay_type_in_all_cases": "cell-based, rat",
  "key": {"ASTs": {"test_system": "ASTs", "assay": "Methylene blue counts of individual cell types: ASTs", "conditions": "BM-D9, 24 h", "description": "(§1) Methylene blue (3,7-bis (dimethylamino)-phenothiazin-5-ium chloride), a ribonucleic acid (RNA) binding agent commonly used as an alternative nucleic acid stain, can also be used as a biological staining agent to stain cells in order to observe their morphological features. At 24 h, cells were fixed in 2% paraformaldehyde for 15 min at room temperature. Briefly, cells were washed twice with PBS and 100 μl of 1% methylene blue (Mallinckrodt Chemical Co., MO, USA) solution containing 1% AgNO3 was added for 10 min to the wells containing coverslips. Subsequently, the coverslips were washed with two changes of distilled water and absolute ethanol, cleared with xylene and mounted on slides with permount.\n(§2) Cell counts were performed for 25 randomly chosen 100 power fields on each coverslip. Two randomly generated coordinates drawn from a uniform distribution of random numbers specified the center of each field. The random numbers were generated on a computer by using Microcal Origin 4.0 program. […] Three coverslips was counted for each treatment condition. In subsequent experiments, different cell types (for example, O-2A progenitors, PROLs, OLs and astrocytes) were morphologically identified on each field and were counted separately for experimental series-I and II. […]"}, "oligodendroglial cells [1]": {"test_system": "oligodendroglial cells", "assay": "Nuclear integrity assay: counts of intact nuclei (Zap-oglobin lysis) after insulin and IGF-I withdrawal", "conditions": "for increase in number of intact nuclei compared to BM: BM + 10^−9 M (BM-D9) vs BM; for number of intact nuclei compared to IM: IM + 10^−9 M (IM-D9)", "description": "In order to examine insulin and IGF-I dependent survival of the cells of the oligodendroglial lineage, cells were trophically deprived for a period of 24 hours at 16 DIV.\n(§3) Cells were trophically withdrawn by replacing the media with a serum free, chemically-defined base media (BM) lacking insulin and IGF-I (Bottenstein et al., 1988). The base media consisited of DMEM supplemented with penicillin (50 IU/ml); streptomycin (50 μg/ml); 1 mM sodium pyruvate; 50 μg/ml transferrin; 0.005 μg/ml sodium selenite; 16 μg/ml putrescine; 0.006 μg/ml progesterone and 0.1 mg/ml bovine serum albumin. All the cells were washed with BM twice before exposing them to individual treatment conditions. Control cells were washed and placed in BM supplemented with 2.5 ng/ml IGF-I and 5 μg/ml insulin to form the insulin media (IM).\nCell survival in the cultures was assessed according to the method of (Soto and Sonnenschein, 1985). After washing and treatment in BM, BM-D9, IM and IM-D9 for 24 h, cells were harvested, centrifuged at 500 rpm for 5 min and the supernatant removed. Pelleted cells were then lysed with 200 μl of 10% Zap-oglobin (Coulter Electronics, FL, USA). The lysing agent is a detergent containing solution that lyses the plasma membrane but leaves the nuclei intact. The lysed solution was collected and vortexed. A small volume (10 μl) of the solution was removed and intact nuclei were counted using a haemocytometer. To be counted, nuclei had to show a completely intact smooth outer border. Counts of intact nuclei were pooled for three or four experiments (a total of 15-20 wells were used for each treatment condition). each treatment condition).\nOLs at 16 DIV were exposed to the different drug treatment conditions for 24 h, following which, the nuclear integrity assay was performed. On the day of the treatment, the cells growing in Nunc 24 well plates were washed twice with base media. Each treatment well received 50 μl of the appropriate drug solution and the total volume in the well was made up to 500 μl with either BM or IM.\nNuclear counts were obtained from quadruplicate wells per treatment condition and the experiment was repeated twice. OLs were exposed to the following treatment conditions: 1) IM, 2) BM, 3) BM-D9, 4) (−)-Desmethyldeprenyl (BM-Ds9), 5) IM-D9 and 6) IM +10^−9 M (−)-Desmethyldeprenyl (IM-Ds9).\nThe treatment conditions with the three general cytochrome P450 blockers were: 1) BM+Proadifen (2.5, 10, 25 μM), 2) BM-D9+Proadifen (2.5, 10, 25 μM), 3) BM-Ds9+Proadifen (2.5, 10, 25 μM), 4) BM+Metapyrone (50 μM), 5) BM-D9+Metapyrone (50 μM), 6) BM-Ds9+Metapyrone (50 μM), 7) BM+Piperonyl butoxide (100 μM), 5) BM-D9+Piperonyl butoxide (100 μM), 6) BM-Ds9+Piperonyl butoxide (100 μM).\nOLs at 16 DIV were washed twice with base media and exposed either to actinomycin, a transcriptional blocker or cycloheximide, a translational blocker for 24 h. […] Actinomycin and cycloheximide were either used with base media alone or in combination with 10^−9 M (−)-desmethyldeprenyl. Each treatment well received 50 μl of the drug solution and the total volume of the well was made up to 500 μl with base media.\nCounts of intact nuclei, obtained from quadruplicate wells per treatment condition were used to quantitate the effects of the transcriptional and translational blockers. Each experiment was repeated twice for experimental density series-II."}, "[2]": {"test_system": "MBP, PLP, GC and CNPase-I", "assay": "Western blot of PROL and OL marker proteins", "conditions": "BM + 10^−9 M, 18 h"}, "oligodendroglial cells [3]": {"test_system": "oligodendroglial cells", "assay": "DNA extraction and electrophoresis (DNA ladders)", "conditions": "BM + 10^−9 M, 18 h after washing on 16 DIV"}, "oligodendroglial cells [4]": {"test_system": "oligodendroglial cells", "assay": "Total counts of intact methylene blue stained cells", "conditions": "BM-D9 (10^−9 M), 24 h", "description": "as §3\nTo study the effects of trophic-like agents on the survival of oligodendroglial […].\nMethylene blue (3,7-bis (dimethylamino)-phenothiazin-5-ium chloride), a ribonucleic acid (RNA) binding agent commonly used as an alternative nucleic acid stain, can also be used as a biological staining agent to stain cells in order to observe their morphological features. […]\nCell counts were performed for 25 randomly chosen 100 power fields on each coverslip. […] Three coverslips was counted for each treatment condition. In subsequent experiments, different cell types (for example, O-2A progenitors, PROLs, OLs and astrocytes) were morphologically identified on each field and were counted separately for experimental series-I and II. […]"}, "OLs": {"test_system": "OLs", "assay": "Methylene blue counts of individual cell types: OLs", "conditions": "BM-D9, 24 h", "description": "as §1, §2"}},
  "data": [
    {"smiles": "C#CCN(C)[C@H](C)Cc1ccccc1", "note": "[(−)-deprenyl, R-(−)-N,α-Dimethyl-N-2-propynyl phenethylamine]", "values": [
      {"measurement": "AST cell numbers compared to those in BM", "setting": "ASTs; experimental series II", "result": 132, "unit": "%"},
      {"measurement": "AST cell numbers compared to those in BM", "setting": "ASTs; experimental series-I", "result": 570, "unit": "%"},
      {"measurement": "increase in number of intact nuclei compared to BM", "setting": "oligodendroglial cells [1]; 24 h, experimental series-I", "result": 217, "unit": "%"},
      {"measurement": "increase in number of intact nuclei compared to BM", "setting": "oligodendroglial cells [1]; 24 h, experimental series-II (15.8×10^3 cell/mm^2)", "result": 164, "unit": "%"},
      {"measurement": "numbers of intact nuclei, % of those in IM", "setting": "oligodendroglial cells [1]; BM + 10^−9 M (BM-D9), 24 h, experimental series-I (5.3×10^3 cell/mm^2)", "result": 119, "unit": "%"},
      {"measurement": "increase in counts of intact nuclei compared to those for BM", "setting": "oligodendroglial cells [1]; BM + 10^−9 M, 24 h, metabolite experiments (FIG. 11)", "result": 194, "unit": "%"},
      {"measurement": "concentration-survival relationship, numbers of intact nuclei", "setting": "oligodendroglial cells [1]; BM with 10^−5, 10^−7 and 10^−9 M, 24 h", "result": "graded increase in the numbers of intact nuclei with the greatest increase for 10^−9 M"},
      {"measurement": "number of intact nuclei compared to IM", "setting": "oligodendroglial cells [1]; 24 h, experimental series-I", "result": 135.6, "unit": "%"},
      {"measurement": "number of intact nuclei compared to IM", "setting": "oligodendroglial cells [1]; 24 h, experimental series-II", "result": 102.4, "unit": "%"},
      {"measurement": "Survival (24 h)", "setting": "oligodendroglial cells [1]; OL cell survival, relative to control (IM)", "result": "++++"},
      {"measurement": "band densities for MBP, CNP-ase I and PLP compared to IM", "setting": "[2]", "result": "exceed those for IM"},
      {"measurement": "immunodensity of marker proteins (MBP, PLP, GC, CNPase-I) compared to BM", "setting": "[2]", "result": "marked increase in immunodensity compared to BM"},
      {"measurement": "DNA laddering on electrophoresis gels", "setting": "oligodendroglial cells [3]", "result": "did not show detectable laddering"},
      {"measurement": "number of intact methylene blue stained cells, % of those in BM", "setting": "oligodendroglial cells [4]; experimental series-I", "result": 576, "unit": "%"},
      {"measurement": "number of intact methylene blue stained cells, % of those in BM", "setting": "oligodendroglial cells [4]; experimental series-II", "result": 255, "unit": "%"},
      {"measurement": "OL cell numbers compared to those in BM", "setting": "OLs; experimental series II", "result": 291, "unit": "%"},
      {"measurement": "OL cell numbers compared to those in BM", "setting": "OLs; experimental series-I", "result": 565.0, "unit": "%"}
    ]}
  ]
}
